The source made the active and inactive calls. The calls are words filed in the database; no cut-off is given here.
Columns and labels:
Cannabinoid receptor 1 [1] = biological target: T1, Cannabinoid receptor 1 (Homo sapiens, UniProt P21554); assay: Displacement of [3H]CP55940 from human CB1 receptor expressed in CHO cell membrane incubated for 2 hrs; format: cell membranes
Cannabinoid receptor 1 [2] = biological target: T1, Cannabinoid receptor 1; assay: Displacement of [3H]CP55940 from human CB1 receptor expressed in CHO cell membrane at 0.001 to 10 uM incubated for 2 hrs relative to control; format: cell membranes; conditions: dose 0.001-10 µM
Cannabinoid receptor 2 [3] = biological target: T2, Cannabinoid receptor 2 (Homo sapiens, UniProt P34972); assay: Displacement of [3H]CP55940 from human CB2 receptor expressed in CHO cell membrane incubated for 2 hrs; format: cell membranes
T2 sequence (P34972 whole entry): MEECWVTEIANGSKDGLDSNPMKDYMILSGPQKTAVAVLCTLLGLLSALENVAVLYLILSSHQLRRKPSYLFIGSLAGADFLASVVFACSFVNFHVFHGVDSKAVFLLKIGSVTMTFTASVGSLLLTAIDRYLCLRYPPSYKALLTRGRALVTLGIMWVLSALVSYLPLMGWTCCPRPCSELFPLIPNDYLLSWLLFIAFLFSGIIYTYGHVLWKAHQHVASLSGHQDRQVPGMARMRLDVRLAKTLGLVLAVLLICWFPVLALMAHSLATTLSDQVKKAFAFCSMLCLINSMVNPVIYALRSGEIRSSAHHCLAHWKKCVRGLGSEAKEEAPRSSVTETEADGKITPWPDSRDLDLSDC

Cannabinoid receptor 2 [4] = biological target: T2, Cannabinoid receptor 2; assay: Displacement of [3H]CP55940 from human CB2 receptor expressed in CHO cell membrane at 0.001 to 10 uM incubated for 2 hrs relative to control; format: cell membranes; conditions: dose 0.001-10 µM
Cannabinoid receptor 2 [5] = biological target: T2, Cannabinoid receptor 2; assay: Agonist activity at human CB2 receptor expressed in CHO cells assessed as inhibition of forskolin-induced cAMP production at 10 uM incubated for 90 mins by HitHunter assay; format: functional, cell-based; conditions: filed as agonist
Cannabinoid receptor 2 [6] = biological target: T2, Cannabinoid receptor 2; assay: Agonist activity at human CB2 receptor expressed in CHO cells assessed as inhibition of forskolin-induced cAMP production incubated for 90 mins in presence of CP55940 ligand by HitHunter assay; format: functional, cell-based
Cannabinoid receptor 2 [7] = biological target: T2, Cannabinoid receptor 2; assay: Agonist activity at human CB2 receptor expressed in CHO cells assessed as inhibition of forskolin-induced cAMP production at 100 nM incubated for 90 mins in presence of CP55940 ligand by HitHunter assay relative to control; format: functional, cell-based; conditions: filed as agonist
Cannabinoid receptor 1 [8] = biological target: T1, Cannabinoid receptor 1; assay: Agonist activity at human CB1 receptor expressed in CHO cells assessed as inhibition of forskolin-induced cAMP production at 100 nM incubated for 90 mins in presence of CP55940 ligand by HitHunter assay relative to control; format: functional, cell-based; conditions: filed as agonist
Cannabinoid receptor 2 [9] = biological target: T2, Cannabinoid receptor 2; assay: Agonist activity at human CB2 receptor expressed in CHO cells assessed as inhibition of forskolin-induced cAMP production at 100 nM incubated for 90 mins in presence of FM6b ligand by HitHunter assay relative to control; format: functional, cell-based; conditions: filed as agonist
Cannabinoid receptor 1 [10] = biological target: T1, Cannabinoid receptor 1; assay: Agonist activity at human CB1 receptor expressed in CHO cells assessed as inhibition of forskolin-induced cAMP production incubated for 90 mins in presence of CP55940 ligand by HitHunter assay; format: functional, cell-based
Cannabinoid receptor 2 [11] = biological target: T2, Cannabinoid receptor 2; assay: Agonist activity at human CB2 receptor expressed in CHO cells assessed as inhibition of forskolin-induced cAMP production incubated for 90 mins in presence of FM6b ligand by HitHunter assay; format: functional, cell-based
Cannabinoid receptor 1 [12] = biological target: T1, Cannabinoid receptor 1; assay: Agonist activity at human CB1 receptor expressed in CHO cells assessed as inhibition of forskolin-induced cAMP production incubated for 90 mins in presence of FM6b ligand by HitHunter assay; format: functional, cell-based
Cannabinoid receptor 1 [13] = biological target: T1, Cannabinoid receptor 1; assay: Agonist activity at human CB1 receptor expressed in CHO cells assessed as inhibition of forskolin-induced cAMP production at 100 nM incubated for 90 mins in presence of FM6b ligand by HitHunter assay relative to control; format: functional, cell-based; conditions: filed as agonist
Cannabinoid receptor 1 [14] = biological target: T1, Cannabinoid receptor 1; assay: Agonist activity at human CB1 receptor expressed in CHO cells assessed as inhibition of forskolin-induced cAMP production incubated for 90 mins in presence of GAT211 ligand by HitHunter assay; format: functional, cell-based
Cannabinoid receptor 1 [15] = biological target: T1, Cannabinoid receptor 1; assay: Agonist activity at human CB1 receptor expressed in CHO cells assessed as inhibition of forskolin-induced cAMP production at 100 nM incubated for 90 mins in presence of GAT211 ligand by HitHunter assay relative to control; format: functional, cell-based
Cannabinoid receptor 1 [16] = biological target: T1, Cannabinoid receptor 1; assay: Displacement of [3H]CP55940 from human CB1 receptor; conditions: filed as agonist
Cannabinoid receptor 2 [17] = biological target: T2, Cannabinoid receptor 2; assay: Displacement of [3H]CP55940 from human CB2 receptor; conditions: filed as agonist
Cannabinoid receptor 2 [18] = biological target: T2, Cannabinoid receptor 2; assay: Agonist activity at human CB2 receptor expressed in CHO cells assessed as inhibition of forskolin-induced cAMP production at 1.8 nM incubated for 90 mins by HitHunter assay relative to control; format: functional, cell-based; parameters: scale not given: the % may be the effect or the level left; conditions: filed as agonist
HepG2 [19] = assay: Anti-steatosis activity against oleate/palmitate-induced human HepG2 cells assessed as induction of lipolysis at 25 uM incubated for 24 hrs; format: functional, cell-based
Cannabinoid receptor 1 [20] = biological target: T1, Cannabinoid receptor 1; assay: Displacement of [3H]CP55940 from human CB1 receptor expressed in CHO cells at 0.001 to 10 uM; format: cell-based; conditions: filed as positive allosteric modulator, dose 0.001-10 µM
Cannabinoid receptor 2 [21] = biological target: T2, Cannabinoid receptor 2; assay: Displacement of [3H]CP55940 from human CB2 receptor expressed in CHO cells at 10 uM; format: cell-based; conditions: filed as positive allosteric modulator
Cannabinoid receptor 2 [22] = biological target: T2, Cannabinoid receptor 2; assay: Displacement of [3H]CP55940 from human CB2 receptor expressed in CHO cells upto 1 uM; format: cell-based
Cannabinoid receptor 2 [23] = biological target: T2, Cannabinoid receptor 2; assay: Agonist activity at human CB2 receptor expressed in CHO cells assessed as inhibition of forskolin-induced cAMP production at 0.001 to 10 uM incubated for 90 mins by HitHunter assay; format: functional, cell-based; conditions: dose 0.001-10 µM
Cannabinoid receptor 1 [24] = biological target: T1, Cannabinoid receptor 1; assay: Positive allosteric modulation at human CB1 receptor expressed in CHO cells assessed as inhibition of forskolin-induced cAMP production incubated for 90 mins by HitHunter assay; format: functional, cell-based; conditions: filed as positive allosteric modulator
Cannabinoid receptor 1 [25] = biological target: T1, Cannabinoid receptor 1; assay: Positive allosteric modulation at human CB1 receptor expressed in CHO cells assessed as inhibition of forskolin-induced cAMP production incubated for 90 mins in presence of FM6b by HitHunter assay relative to control; format: functional, cell-based; conditions: filed as positive allosteric modulator
Cannabinoid receptor 2 [26] = biological target: T2, Cannabinoid receptor 2; assay: Positive allosteric modulation at human CB2 receptor expressed in CHO cells assessed as inhibition of forskolin-induced cAMP production incubated for 90 mins in presence of FM6b by HitHunter assay; format: functional, cell-based
Cannabinoid receptor 2 [27] = biological target: T2, Cannabinoid receptor 2; assay: Positive allosteric modulation at human CB2 receptor expressed in CHO cells assessed as inhibition of forskolin-induced cAMP production incubated for 90 mins in presence of FM6b by HitHunter assay relative to control; format: functional, cell-based; conditions: filed as positive allosteric modulator
Cannabinoid receptor 2 [28] = biological target: T2, Cannabinoid receptor 2; assay: Positive allosteric modulation at human CB2 receptor expressed in CHO cells assessed as inhibition of forskolin-induced cAMP production incubated for 90 mins in presence of CP55940 ligand by HitHunter assay; format: functional, cell-based
Cannabinoid receptor 2 [29] = biological target: T2, Cannabinoid receptor 2; assay: Positive allosteric modulation at human CB2 receptor expressed in CHO cells assessed as inhibition of forskolin-induced cAMP production incubated for 90 mins in presence of CP55940 ligand by HitHunter assay relative to control; format: functional, cell-based; conditions: filed as positive allosteric modulator
HepG2 [30] = assay: Induction of lipid accumulation in human HepG2 cells assessed as increase in lipolysis at 0.1 to 25 uM incubated for 24 hrs by Oil Red O staining based analysis; format: functional, cell-based; conditions: dose 0.1-25 µM
Cannabinoid receptor 1 [31] = biological target: T1, Cannabinoid receptor 1; assay: Agonist activity at human CB1 receptor expressed in CHO cells assessed as inhibition of forskolin-induced cAMP production at 1 nM incubated for 90 mins in presence of CP55940 ligand by HitHunter assay relative to control; format: functional, cell-based; conditions: filed as agonist
HepG2 [32] = assay: Cytotoxicity against human HepG2 cells at 0.1 to 100 uM incubated for 24 hrs by MTT assay; format: functional, cell-based; conditions: dose 0.1-100 µM
HepG2 [33] = assay: Induction of lipid accumulation in human HepG2 cells at 0.1 to 25 uM incubated for 24 hrs by Oil Red O staining based analysis; format: functional, cell-based; conditions: dose 0.1-25 µM
HepG2 [34] = assay: Anti-steatosis activity against oleate/palmitate-induced human HepG2 cells assessed as reduction of lipid accumulation incubated for 24 hrs; format: functional, cell-based; conditions: dose 0.1-25 µM
HepG2 [35] = assay: Anti-steatosis activity against oleate/palmitate-induced human HepG2 cells assessed as induction of lipolysis at 0.1 to 25 uM incubated for 24 hrs; format: functional, cell-based; conditions: dose 0.1-25 µM
[36] = Cytotoxicity against mouse BEND3 cells assessed as cell viability at 30 uM incubated for 24 hrs by WST-1 assay; format: functional; conditions: read-out: Activity
BEND3 [37] = assay: Disruption of monolayer integrity in mouse BEND3 cells assessed as change in TEER modulation after 3 hrs; format: functional, cell-based
BEND3 [38] = assay: Disruption of monolayer integrity in mouse BEND3 cells assessed as change in TEER modulation at 135 mins; format: functional, cell-based
BEND3 [39] = assay: Disruption of monolayer integrity in mouse BEND3 cells assessed as change in TEER modulation at 180 mins; format: functional, cell-based

T1 sequence (P21554 whole entry): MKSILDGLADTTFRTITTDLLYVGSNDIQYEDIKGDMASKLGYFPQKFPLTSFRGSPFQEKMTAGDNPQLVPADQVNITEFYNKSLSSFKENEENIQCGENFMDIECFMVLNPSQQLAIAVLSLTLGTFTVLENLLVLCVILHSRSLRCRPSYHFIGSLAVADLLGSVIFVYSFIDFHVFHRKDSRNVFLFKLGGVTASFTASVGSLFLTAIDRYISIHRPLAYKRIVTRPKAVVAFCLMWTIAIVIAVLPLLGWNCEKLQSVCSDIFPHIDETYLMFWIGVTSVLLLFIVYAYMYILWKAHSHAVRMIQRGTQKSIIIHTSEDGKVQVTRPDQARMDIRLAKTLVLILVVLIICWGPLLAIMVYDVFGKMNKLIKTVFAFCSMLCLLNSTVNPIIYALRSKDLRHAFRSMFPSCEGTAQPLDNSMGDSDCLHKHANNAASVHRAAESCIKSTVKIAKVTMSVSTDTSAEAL

Row | SMILES | IC50 (Cannabinoid receptor 1 [1]) [nM] | Emax (Cannabinoid receptor 2 [4]; filed as agonist) [%] | Activity (Cannabinoid receptor 2 [5]) | Emax (Cannabinoid receptor 1 [8]) [%] | EC50 (Cannabinoid receptor 1 [10]) [nM] | EC50 (Cannabinoid receptor 1 [12]) [nM] | Emax (Cannabinoid receptor 1 [13]) [%] | EC50 (Cannabinoid receptor 1 [14]) [nM] | Emax (Cannabinoid receptor 1 [15]) [%] | Emax (Cannabinoid receptor 1 [2]) [%] | IC50 (Cannabinoid receptor 2 [3]; read-out: pIC50 (converted)) [nM] | Emax (Cannabinoid receptor 2 [4]) [%] | Activity (HepG2 [19]) | Activity (HepG2 [30]) | also measured
1 | Cc1c(Br)cc(C(=O)NC2CCCCCC2)c(=O)n1CCCn1cc(CCC(=O)NCC(c2ccccc2)c2c(-c3ccccc3)[nH]c3ccccc23)nn1 (centres undefined) | 31.6 | 130 | Active | 61 | 7.94 | 2510 | 150 | 2 | 26 | – | – | – | – | – | Emax (Cannabinoid receptor 1 [2]; filed as agonist): 329%; IC50 (Cannabinoid receptor 2 [3]; read-out: IC50): 6.3 nM; EC50 (Cannabinoid receptor 2 [6]): 10 nM; Emax (Cannabinoid receptor 2 [7]): 123%; Emax (Cannabinoid receptor 2 [9]): 77%; EC50 (Cannabinoid receptor 2 [11]): 316 nM
2 | Cc1c(Br)cc(C(=O)NC2CCCCCC2)c(=O)n1Cc1ccc(F)cc1 | 0.794 | – | – | – | – | – | – | – | – | 29 | 6.31 | 13 | inactive | – | Activity (Cannabinoid receptor 1 [16]): Active; Activity (Cannabinoid receptor 2 [17]): Active; Activity (Cannabinoid receptor 2 [18]): 104%
3 | O=[N+]([O-])CC(c1ccccc1)c1c(-c2ccccc2)[nH]c2ccccc12 (centres undefined) | – | – | – | – | – | – | – | – | – | – | > 10000 | 29 | inactive | inactive | Activity (Cannabinoid receptor 1 [20]): Active; Activity (Cannabinoid receptor 2 [21]): Active; Activity (Cannabinoid receptor 2 [22]): inactive; Emax (Cannabinoid receptor 1 [2]; filed as positive allosteric modulator): 140%; Activity (Cannabinoid receptor 2 [23]): No effect; Activity (Cannabinoid receptor 1 [24]): Active; Emax (Cannabinoid receptor 1 [25]): 85%; EC50 (Cannabinoid receptor 2 [26]): 170 nM; Emax (Cannabinoid receptor 2 [27]): 98%; EC50 (Cannabinoid receptor 2 [28]): 0.06 nM; Emax (Cannabinoid receptor 2 [29]): 105%
4 | Cc1c(Br)cc(C(=O)NC2CCCCCC2)c(=O)n1CCCCCn1cc(CCCCC(=O)NCC(c2ccccc2)c2c(-c3ccccc3)[nH]c3ccccc23)nn1 (centres undefined) | 126 | 201 | Active | – | 1580 | 6.31 | 83 | 126 | 35 | 31 | 1000 | – | – | Active | Emax (Cannabinoid receptor 1 [31]): 98%; Activity (HepG2 [32]): Active; Activity (HepG2 [33]): Active; Activity (HepG2 [34]): Dose-dependent-effect; Activity (HepG2 [35]): Active; viability at 30 µM [36]: > 75%; Activity (BEND3 [37]): Active; Activity (BEND3 [38]): Active; Activity (BEND3 [39]): Active
5 | Cc1c(Br)cc(C(=O)NC2CCCCCC2)c(=O)n1CCCCCn1cc(CCCC(=O)NCC(c2ccccc2)c2c(-c3ccccc3)[nH]c3ccccc23)nn1 (centres undefined) | 15.8 | 44 | Active | 122 | 251 | 1580 | 130 | 5.01 | 24 | 0.12 | > 10000 | – | – | – | –

Source: ChEMBL document CHEMBL6096683, “Novel Orthosteric/Allosteric Ligands of Cannabinoid Receptors: An Unexpected Pharmacological Profile” (J Med Chem, 2025)
